Data on two sequences can be found in patent US20120156242A1 (priority 2009, published 2012).

The conditions of assay [1]: in vivo; for eliciting of antibody (antibody titer of rabbit immune serum against the peptide): sc.
A further assay concerns monoclonal antibody D-1. Put plainly: Inhibition by synthetic peptides of the neutralization activity of D-1. The assay is classed as cell-based, human. To be noted: D-1 and influenza A virus incubated with synthetic peptide.

In the case of NIPSRISIYWTIVKPGD [peptide 2], the “eliciting of antibody (antibody titer of rabbit immune serum against the peptide)” value in assay [1] is reported as “could elicit the antibody in rabbit”. Also, the neutralization inhibition rate entry with monoclonal antibody D-1 is “about 20%”.
In the case of TMPNNEKFDKLYIWGVHHPGT [peptide 1], the “eliciting of antibody (antibody titer of rabbit immune serum against the peptide)” value in assay [1] is “could elicit the antibody in rabbit”. Also, the antigenicity result in assay [1] (rabbit) is recorded as “high antigenicity compared with the lower region peptide”. In addition, the neutralization inhibition rate result in the assay on monoclonal antibody D-1 is “about 50%”.
